Measured values: US9738655B2, “Tetrahydroisoquinolines containing substituted azoles as factor XIa inhibitors” (BRISTOL-MYERS SQUIBB COMPANY, priority 2013, dated 2017)
pKi: −log10 of the molar value. Counter-ions that a name gives are not always drawn. Like-named read-outs stand apart in the source and are kept apart here.

Key:
[1] = molecular target: purified human plasma kallikrein (Homo sapiens (Human), UniProt P03952); test: Plasma kallikrein enzyme inhibition assay (chromogenic substrate S-2302); type: biochemical
purified human plasma kallikrein, sequence (P03952 391-638): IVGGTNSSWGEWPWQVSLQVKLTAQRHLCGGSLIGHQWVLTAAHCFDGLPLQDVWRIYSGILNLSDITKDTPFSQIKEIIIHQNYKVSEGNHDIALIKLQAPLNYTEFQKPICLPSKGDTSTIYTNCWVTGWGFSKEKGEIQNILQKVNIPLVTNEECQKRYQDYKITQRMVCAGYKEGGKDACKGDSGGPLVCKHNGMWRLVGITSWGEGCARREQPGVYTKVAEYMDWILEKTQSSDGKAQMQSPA
purified human plasma kallikrein, sequence (P03952 20-390 partner): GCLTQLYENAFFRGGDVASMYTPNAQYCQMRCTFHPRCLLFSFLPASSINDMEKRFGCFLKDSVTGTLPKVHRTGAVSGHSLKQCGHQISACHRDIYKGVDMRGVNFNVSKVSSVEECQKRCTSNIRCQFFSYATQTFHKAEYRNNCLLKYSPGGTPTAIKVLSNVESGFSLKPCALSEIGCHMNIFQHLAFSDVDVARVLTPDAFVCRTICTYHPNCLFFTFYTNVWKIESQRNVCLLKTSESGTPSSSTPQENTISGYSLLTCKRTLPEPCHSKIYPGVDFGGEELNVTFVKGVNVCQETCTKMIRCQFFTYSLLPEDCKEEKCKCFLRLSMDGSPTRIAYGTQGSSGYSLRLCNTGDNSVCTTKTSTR

[2] = molecular target: purified human Factor XIa (Homo sapiens (Human), UniProt P03951); test: Factor XIa enzyme inhibition assay (chromogenic substrate S-2366)
purified human Factor XIa, sequence (P03951 388-625): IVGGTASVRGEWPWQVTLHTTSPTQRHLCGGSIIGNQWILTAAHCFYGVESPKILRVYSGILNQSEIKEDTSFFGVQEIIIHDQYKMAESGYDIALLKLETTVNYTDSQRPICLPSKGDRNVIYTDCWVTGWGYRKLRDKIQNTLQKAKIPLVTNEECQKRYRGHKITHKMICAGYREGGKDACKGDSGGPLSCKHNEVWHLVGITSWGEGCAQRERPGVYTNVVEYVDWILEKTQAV
purified human Factor XIa, sequence (P03951 19-387 partner): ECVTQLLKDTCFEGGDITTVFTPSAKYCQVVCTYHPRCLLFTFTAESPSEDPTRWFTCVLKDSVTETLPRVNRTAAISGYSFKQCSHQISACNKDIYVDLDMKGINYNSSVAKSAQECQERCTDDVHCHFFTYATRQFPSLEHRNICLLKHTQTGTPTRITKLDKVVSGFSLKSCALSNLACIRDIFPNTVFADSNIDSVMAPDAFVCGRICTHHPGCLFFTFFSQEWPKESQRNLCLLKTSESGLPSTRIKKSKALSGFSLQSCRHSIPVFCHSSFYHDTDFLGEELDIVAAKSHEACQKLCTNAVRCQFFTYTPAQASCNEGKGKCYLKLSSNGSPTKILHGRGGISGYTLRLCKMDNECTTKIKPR
Experimental: The effectiveness of compounds of the present invention as inhibitors of the coagulation Factors XIa, VIIa, IXa, Xa, XIIa, plasma kallikrein or thrombin, can be determined using a relevant purified serine protease, respectively, and an appropriate synthetic substrate. The rate of hydrolysis of the chromogenic or fluorogenic substrate by the relevant serine protease was measured both in the absence and presence of compounds of the present invention. […] A decrease in the rate of absorbance or fluorescence change in the presence of inhibitor is indicative of enzyme inhibition. […] The results of this assay are expressed as the inhibitory constant, Ki.
Values of Ki were determined by allowing the protease to react with the substrate in the presence of the inhibitor.

[3] = read-out: Factor XIa Ki, measured at 25° C.
[4] = measured at 25° C. (no asterisk)

pKi ([1]; measured at 37° C. (*)) | pKi [2] | pKi [2, 3] | pKi [1, 4] | SMILES
< 5.22 | – | 6.09 | – | COC1CCN(c2cccc3c2CCN(C(=O)c2cnn(-c4ccnc(C)c4)c2)C3C(=O)Nc2ccc(C(=O)O)cc2)CC1 (centres unmarked) [Example 327, 4-(5-(4-Methoxypiperidin-1-yl)-2-(1-(2-methylpyridin-4-yl)-1H-pyrazole-4-carbonyl)-1,2,3,4-tetrahydroisoquinoline-1-carboxamido)benzoic acid, TFA salt]
– | – | 7.57 | 6.64 | COC1CCN(c2cccc3c2CCN(C(=O)c2cnn(-c4cccc(Cl)c4)c2)C3C(=O)Nc2ccc(C(=O)O)cc2)CC1 (centres unmarked) [Example 329, 4-(2-(1-(3-chlorophenyl)-1H-pyrazole-4-carbonyl)-5-(4-methoxypiperidin-1-yl)-1,2,3,4-tetrahydroisoquinoline-1-carboxamido)benzoic acid, TFA salt]
– | – | 7.74 | 7.21 | C=C(C)c1cccc2c1CCN(C(=O)c1cn(-c3cccc(Cl)c3F)nn1)C2C(=O)Nc1ccc(C(=O)O)cc1 (centres unmarked) [Example 333, 4-(2-(1-(3-Chloro-2-fluorophenyl)-1H-1,2,3-triazole-4-carbonyl)-5-(prop-1-en-2-yl)-1,2,3,4-tetrahydroisoquinoline-1-carboxamido)benzoic acid]
7.17 | – | 7.55 | – | CC(C)c1nnc2n1CCN(c1cccc3c1CCN(C(=O)[C@H]1CC(c4cccc(Cl)c4F)=NO1)[C@H]3C(=O)Nc1ccc(C(=O)O)cc1)C2 [Example 337, 4-((R)-2-((R)-3-(3-Chloro-2-fluorophenyl)-4,5-dihydroisoxazole-5-carbonyl)-5-(3-isopropyl-5,6-dihydro-[1,2,4]triazolo[4,3-a]pyrazin-7(8H)-yl)-1,2,3,4-tetrahydroisoquinoline-1-carboxamido)benzoic acid, TFA salt]

Second part, the compound before the results:

SMILES | pKi ([1]; measured at 37° C. (*)) | pKi [2] | pKi [2, 3] | pKi [1, 4]
COC1CCN(c2cccc3c2CCN(C(=O)N2CCCC(c4cccc(Cl)c4F)C2)C3C(=O)Nc2ccc(C(=O)O)cc2)CC1 (centres unmarked) [Example 326, 4-(2-(3-(3-Chloro-2-fluorophenyl)piperidine-1-carbonyl)-5-(4-methoxypiperidin-1-yl)-1,2,3,4-tetrahydroisoquinoline-1-carboxamido)benzoic acid, TFA salt] | < 5.70 | 6.48 | – | –
COC1CCN(c2cccc3c2CCN(C(=O)c2cnn(-c4cccnc4)c2)C3C(=O)Nc2ccc(C(=O)O)cc2)CC1 (centres unmarked) [Example 330, 4-(5-(4-methoxypiperidin-1-yl)-2-(1-(pyridin-3-yl)-1H-pyrazolc-4-carbonyl)-1,2,3,4-tetrahydroisoquinoline-1-carboxamido)benzoic acid, 2 TFA salt] | < 5.22 | – | 5.45 | –
COC1CCN(c2cccc3c2CCN(C(=O)c2cnn(-c4ccc5nonc5c4)c2)C3C(=O)Nc2ccc(C(=O)O)cc2)CC1 (centres unmarked) [Example 331, 4-(2-(1-(benzo[c][1,2,5]oxadiazol-5-yl)-1H-pyrazole-4-carbonyl)-5-(4-methoxypiperidin-1-yl)-1,2,3,4-tetrahydroisoquinoline-1-carboxamido)benzoic acid] | < 5.22 | – | 5.15 | –
Nc1cccc2c1CCN(C(=O)c1cn(-c3cccc(Cl)c3F)nn1)C2C(=O)Nc1ccc(C(=O)O)cc1 (centres unmarked) [Example 334, 4-(5-Amino-2-(1-(3-chloro-2-fluorophenyl)-1H-1,2,3-triazole-4-carbonyl)-1,2,3,4-tetrahydroisoquinoline-1-carboxamido)benzoic acid, TFA salt] | – | – | 7.97 | 8.20
COC1CCN(c2cccc3c2CCN(C(=O)c2cn(-c4cccc(Cl)c4F)nn2)C3C(=O)Nc2ccc(C(N)=O)cc2)CC1 (centres unmarked) [Example 335, N-(4-Carbamoylphenyl)-2-(1-(3-chloro-2-fluorophenyl)-1H-1,2,3-triazole-4-carbonyl)-5-(4-methoxypiperidin-1-yl)-1,2,3,4-tetrahydroisoquinoline-1-carboxamide, TFA salt] | 7.01 | – | > 8.30 | –
CC(C)c1nnc2n1CCN(c1cccc3c1CCN(C(=O)[C@H]1CC(c4cccc(Cl)c4F)=NO1)[C@@H]3C(=O)Nc1ccc(C(=O)O)cc1)C2 [Example 336, 4-((S)-2-((R)-3-(3-Chloro-2-fluorophenyl)-4,5-dihydroisoxazole-5-carbonyl)-5-(3-isopropyl-5,6-dihydro-[1,2,4]triazolo[4,3-a]pyrazin-7(8H)-yl)-1,2,3,4-tetrahydroisoquinoline-1-carboxamido)benzoic acid, TFA salt] | 8.85 | – | > 8.30 | –
